Reference: paper PMC11992225, “Antibacterial compounds against non-growing and intracellular bacteria” (npj Antimicrobials and Resistance, 2025)
Several values for one entry are separate records, joined by “and”; a condition that tells them apart may be missing. Identical values can stand only once.

Columns and labels:
[1] = tested on: intracellular S. flexneri 5a M90T in TC7 cells; experiment: microbe, parasite or virus in culture; type: cell-based, Shigella flexneri
non-growing UPEC CFT073 = experiment: Dose-dependent killing analysis (CFU spot-plating) of stationary-phase UPEC; type: cell-based, Escherichia coli
Method in brief: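 Non-growing (stationary-phase) UPEC CFT073 treated with compounds in 96-well format at 200 μl, then 10-fold serially diluted in PBS and 10 μl spots plated on LB agar. Plates incubated overnight at 37 °C; colonies counted at lowest resolvable dilution to give CFU. Three biological replicates.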

[2] = tested on: non-growing P. aeruginosa DSM1117; experiment: Dose-dependent killing analysis (CFU spot-plating) of stationary-phase P. aeruginosa; type: cell-based, Pseudomonas aeruginosa; settings: for killing, average Δlog10(CFU/ml) / log10(CFU/ml) of treated nongrowing bacteria (single replicates): P. aeruginosa; for log10(CFU/ml) of treated nongrowing bacteria (single replicates): before treatment 8.887
Method in brief: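 Stationary-phase P. aeruginosa DSM1117 treated for 24 h in 1:4 CA-MHB, pH 7.4, across compound doses. Survivors counted after 10-fold PBS dilution, spot-plating on LB agar and overnight growth at 37 °C; three biological replicates.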

[3] = tested on: non-growing S. aureus DSM2569; experiment: Dose-dependent killing analysis (CFU spot-plating) of stationary-phase S. aureus; type: cell-based, Staphylococcus aureus; settings: for killing, average Δlog10(CFU/ml) / log10(CFU/ml) of treated nongrowing bacteria (single replicates): S. aureus; for log10(CFU/ml) of treated nongrowing bacteria (single replicates): before treatment 9,097
Method in brief: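 Stationary-phase S. aureus DSM2569 was grown and treated for 24 h in 1:4 CA-MHB at pH 7.4. Treated samples were serially diluted 10-fold in PBS and spot-plated on LB agar, which was incubated overnight at 37 °C. Survivors were counted as CFU over three biological replicates.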

N[C@@H]1CN(c2c(F)cc3c(=O)c(C(=O)O)cn([C@@H]4C[C@@H]4F)c3c2Cl)CC12CC2 [Sitafloxacin]
Fluorescence intensity (RFU), Mean, 2 x MIC ([1]; TC7 cells infected with GFP-expressing S. flexneri, 14 h treatment, 2 x MIC): 4007.53 RFU
Fluorescence intensity (RFU), Mean, 4 x MIC ([1]; TC7 cells infected with GFP-expressing S. flexneri, 14 h treatment, 4 x MIC): 3422.83 RFU
Fluorescence intensity (RFU), Mean, 8 x MIC ([1]; TC7 cells infected with GFP-expressing S. flexneri, 14 h treatment, 8 x MIC): 3200.25 RFU
Fluorescence intensity (RFU), Mean, 16 x MIC ([1]; TC7 cells infected with GFP-expressing S. flexneri, 14 h treatment, 16 x MIC): 2414.89 RFU
Fluorescence intensity (RFU), Mean, 32 x MIC ([1]; TC7 cells infected with GFP-expressing S. flexneri, 14 h treatment, 32 x MIC): 2083.61 RFU
Fluorescence intensity (RFU), Mean, MIC ([1]; TC7 cells infected with GFP-expressing S. flexneri, 14 h treatment, MIC): 5217.75 RFU
IC50 ([1]; intracellular S. flexneri in TC7 cells, GFP fluorescence after 14 h treatment, read-out: IC50): 25 nM
bactericidal activity against non-growing UPEC (CFU counting) (non-growing UPEC CFT073; 24 h treatment of stationary phase culture): most potent and bactericidal
killing, average Δlog10(CFU/ml) (non-growing UPEC CFT073; E. coli in 1:4 CA-MHB (pH 7.4), drug concentration 0.25): 1.161 log10(CFU/ml)
log10(CFU/ml) of treated nongrowing bacteria (single replicates) (non-growing UPEC CFT073; E. coli in 1:4 CA-MHB (pH 7.4), drug concentration 0.25, before treatment 8.977): 8.415 log10(CFU/ml) and 7.602 log10(CFU/ml) and 7.431 log10(CFU/ml)
killing, average Δlog10(CFU/ml) (non-growing UPEC CFT073; E. coli in 1:4 CA-MHB (pH 7.4), drug concentration 0.5): 2.277 log10(CFU/ml)
log10(CFU/ml) of treated nongrowing bacteria (single replicates) (non-growing UPEC CFT073; E. coli in 1:4 CA-MHB (pH 7.4), drug concentration 0.5, before treatment 8.977): 7.255 log10(CFU/ml) and 6.699 log10(CFU/ml) and 6.146 log10(CFU/ml)
killing, average Δlog10(CFU/ml) (non-growing UPEC CFT073; E. coli in 1:4 CA-MHB (pH 7.4), drug concentration 1): 3.175 log10(CFU/ml)
log10(CFU/ml) of treated nongrowing bacteria (single replicates) (non-growing UPEC CFT073; E. coli in 1:4 CA-MHB (pH 7.4), drug concentration 1, before treatment 8.977): 6.204 log10(CFU/ml) and 5.903 log10(CFU/ml) and 5.301 log10(CFU/ml)
killing, average Δlog10(CFU/ml) (non-growing UPEC CFT073; E. coli in 1:4 CA-MHB (pH 7.4), drug concentration 2.5): 4.145 log10(CFU/ml)
log10(CFU/ml) of treated nongrowing bacteria (single replicates) (non-growing UPEC CFT073; E. coli in 1:4 CA-MHB (pH 7.4), drug concentration 2.5, before treatment 8.977): 5.176 log10(CFU/ml) and 4.477 log10(CFU/ml) and 4.845 log10(CFU/ml)
killing, average Δlog10(CFU/ml) (non-growing UPEC CFT073; E. coli in 1:4 CA-MHB (pH 7.4), drug concentration 5): 4.067 log10(CFU/ml)
log10(CFU/ml) of treated nongrowing bacteria (single replicates) (non-growing UPEC CFT073; E. coli in 1:4 CA-MHB (pH 7.4), drug concentration 5, before treatment 8.977): 5.255 log10(CFU/ml) and 4.699 log10(CFU/ml) and 4.778 log10(CFU/ml)
killing, average Δlog10(CFU/ml) (non-growing UPEC CFT073; E. coli in 1:4 CA-MHB (pH 7.4), drug concentration 10): 4.500 log10(CFU/ml)
log10(CFU/ml) of treated nongrowing bacteria (single replicates) (non-growing UPEC CFT073; E. coli in 1:4 CA-MHB (pH 7.4), drug concentration 10, before treatment 8.977): 4.954 log10(CFU/ml) and =<4 log10(CFU/ml) and 4.477 log10(CFU/ml)
killing, average Δlog10(CFU/ml) (non-growing UPEC CFT073; E. coli in LPM (pH 5.5), drug concentration 0.25): -0.135 log10(CFU/ml)
log10(CFU/ml) of treated nongrowing bacteria (single replicates) (non-growing UPEC CFT073; E. coli in LPM (pH 5.5), drug concentration 0.25, before treatment 7.350): 7.000 log10(CFU/ml) and 7.176 log10(CFU/ml) and 8.279 log10(CFU/ml)
killing, average Δlog10(CFU/ml) (non-growing UPEC CFT073; E. coli in LPM (pH 5.5), drug concentration 0.5): 0.023 log10(CFU/ml)
log10(CFU/ml) of treated nongrowing bacteria (single replicates) (non-growing UPEC CFT073; E. coli in LPM (pH 5.5), drug concentration 0.5, before treatment 7.350): 6.778 log10(CFU/ml) and 7.000 log10(CFU/ml) and 8.204 log10(CFU/ml)
killing, average Δlog10(CFU/ml) (non-growing UPEC CFT073; E. coli in LPM (pH 5.5), drug concentration 1): -0.037 log10(CFU/ml)
log10(CFU/ml) of treated nongrowing bacteria (single replicates) (non-growing UPEC CFT073; E. coli in LPM (pH 5.5), drug concentration 1, before treatment 7.350): 7.146 log10(CFU/ml) and 7.114 log10(CFU/ml) and 7.903 log10(CFU/ml)
killing, average Δlog10(CFU/ml) (non-growing UPEC CFT073; E. coli in LPM (pH 5.5), drug concentration 2.5): 0.324 log10(CFU/ml)
log10(CFU/ml) of treated nongrowing bacteria (single replicates) (non-growing UPEC CFT073; E. coli in LPM (pH 5.5), drug concentration 2.5, before treatment 7.350): 7.000 log10(CFU/ml) (2×) and 7.079 log10(CFU/ml)
killing, average Δlog10(CFU/ml) (non-growing UPEC CFT073; E. coli in LPM (pH 5.5), drug concentration 5): 1.016 log10(CFU/ml)
log10(CFU/ml) of treated nongrowing bacteria (single replicates) (non-growing UPEC CFT073; E. coli in LPM (pH 5.5), drug concentration 5, before treatment 7.350): 6.301 log10(CFU/ml) and 6.954 log10(CFU/ml) and 5.748 log10(CFU/ml)
killing, average Δlog10(CFU/ml) (non-growing UPEC CFT073; E. coli in LPM (pH 5.5), drug concentration 10): 1.383 log10(CFU/ml)
log10(CFU/ml) of treated nongrowing bacteria (single replicates) (non-growing UPEC CFT073; E. coli in LPM (pH 5.5), drug concentration 10, before treatment 7.350): 6.279 log10(CFU/ml) and 6.544 log10(CFU/ml) and 5.079 log10(CFU/ml)
killing, average Δlog10(CFU/ml) ([2]; drug concentration 0.1): 1.534 log10(CFU/ml)
log10(CFU/ml) of treated nongrowing bacteria (single replicates) ([2]; drug concentration 0.1): 7.699 log10(CFU/ml) and 7.362 log10(CFU/ml) and 7.000 log10(CFU/ml)
killing, average Δlog10(CFU/ml) ([2]; drug concentration 0.5): 3.935 log10(CFU/ml)
log10(CFU/ml) of treated nongrowing bacteria (single replicates) ([2]; drug concentration 0.5): 5.954 log10(CFU/ml) and 4.903 log10(CFU/ml) and =<4 log10(CFU/ml)
killing, average Δlog10(CFU/ml) ([2]; drug concentration 2.5): 4.787 log10(CFU/ml)
log10(CFU/ml) of treated nongrowing bacteria (single replicates) ([2]; drug concentration 2.5): =<4 log10(CFU/ml) (2×) and 4.301 log10(CFU/ml)
killing, average Δlog10(CFU/ml) ([2]; drug concentration 10): 4.353 log10(CFU/ml)
log10(CFU/ml) of treated nongrowing bacteria (single replicates) ([2]; drug concentration 10): 5.000 log10(CFU/ml) and 4.602 log10(CFU/ml) and =<4 log10(CFU/ml)
reduction of bacterial counts, stationary phase P. aeruginosa ([2]; at 0.5 µM, 24 h treatment): more than four
reduction of bacterial counts, non-growing P. aeruginosa ([2]; at 2.5 µM, 1:4 CA-MHB pH 7.4, 24 h treatment): more than four
killing of non-growing S. aureus (reduction of bacterial counts) ([3]; 10 to 0.1 μM, 24 h treatment): the most activity
killing, average Δlog10(CFU/ml) ([3]; drug concentration 0.1): 0.348 log10(CFU/ml)
log10(CFU/ml) of treated nongrowing bacteria (single replicates) ([3]; drug concentration 0.1): 8.602 log10(CFU/ml) and 8.881 log10(CFU/ml) and 8.763 log10(CFU/ml)
killing, average Δlog10(CFU/ml) ([3]; drug concentration 0.5): 1.504 log10(CFU/ml)
log10(CFU/ml) of treated nongrowing bacteria (single replicates) ([3]; drug concentration 0.5): 7.223 log10(CFU/ml) and 7.833 log10(CFU/ml) and 7.724 log10(CFU/ml)
killing, average Δlog10(CFU/ml) ([3]; drug concentration 2.5): 2.447 log10(CFU/ml)
log10(CFU/ml) of treated nongrowing bacteria (single replicates) ([3]; drug concentration 2.5): 6.820 log10(CFU/ml) and 6.716 log10(CFU/ml) and 6.413 log10(CFU/ml)
killing, average Δlog10(CFU/ml) ([3]; drug concentration 10): 2.500 log10(CFU/ml)
log10(CFU/ml) of treated nongrowing bacteria (single replicates) ([3]; drug concentration 10): 6.908 log10(CFU/ml) and 6.613 log10(CFU/ml) and 6.270 log10(CFU/ml)
